Where a SMILES comes first, the peptide text is derived from it. Bridges are numbered along the chain shown (N, C = ends). [ ]: non-standard residue; d: D form. The star is where a group is joined. X1 = O=C(O)CCCCCCCCCCCCCCCCC(=O)N[C@@H](CCC(=O)NCCOCCOCCOCCOCCOCCOCCOCCOCCOCCOCCOCCn1cc(C*)nn1)C(=O)O; Phe(4-COOH) = N[C@@H](Cc1ccc(C(=O)O)cc1)C(=O)O; Phe(4-CH2NH2) = NCc1ccc(C[C@H](N)C(=O)O)cc1; Bip = N[C@@H](Cc1ccc(-c2ccccc2)cc1)C(=O)O; Phe(3-Me) = Cc1cccc(C[C@H](N)C(=O)O)c1; C12 diacid = O=C(O)CCCCCCCCCCC(=O)*; 4Pal = N[C@@H](Cc1ccncc1)C(=O)O; Cha = N[C@@H](CC1CCCCC1)C(=O)O; Carboxymethyl = O=C(O)C*; NMeA = CN[C@@H](C)C(=O)O; Nle = CCCC[C@H](N)C(=O)O; Orn = NCCC[C@H](N)C(=O)O; Dab = NCC[C@H](N)C(=O)O; Nva = CCC[C@H](N)C(=O)O; Abu = CC[C@H](N)C(=O)O; Dap = NC[C@H](N)C(=O)O
Molecular target: T1, human PD-1 (Jurkat-PD-1 cells; binding of PE-labeled human PD-L1-Ig) (Homo sapiens, UniProt Q15116)
T1 construct: expressed in transfected cells; host or cells: Jurkat (Jurkat-PD-1 / Jurkat-hPD-1)
T1 sequence (Q15116 25-288): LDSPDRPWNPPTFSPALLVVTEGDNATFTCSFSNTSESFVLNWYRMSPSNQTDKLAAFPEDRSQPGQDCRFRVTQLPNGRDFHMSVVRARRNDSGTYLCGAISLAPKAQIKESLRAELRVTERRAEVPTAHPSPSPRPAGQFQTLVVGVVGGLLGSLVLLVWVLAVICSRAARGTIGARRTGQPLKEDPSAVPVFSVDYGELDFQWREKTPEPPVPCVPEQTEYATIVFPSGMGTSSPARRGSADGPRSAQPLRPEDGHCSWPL
Test: Jurkat-PD-1 Cell Binding High-Content Screening Assay
Conditions: Jurkat cell line over-expressing human PD-1; compound 2 h at 37° C., then PE-labeled PD-L1-Ig 20 nM final, 1 hour; read-out: Jurkat hPD1 PDL1 IC50
Experimental: The ability of the compounds of formula (I) to bind to PD-1 was investigated using a Jurkat-PD-1 Cell Binding High-Content Screening Assay.
Phycoerythrin (PE) was covalently linked to the Ig epitope tag of human PD-L1-Ig and fluorescently-labeled PD-L1-Ig was used for binding studies with a Jurkat cell line over-expressing human PD-1 (Jurkat-PD-1). Briefly, 8×10^3 Jurkat-hPD-1 cells were seeded into 384 well plates in 20 μl of DIVEM supplemented with 10% fetal calf serum. 100 nl of compound was added to cells followed by incubation at 37° C. for 2 h. Then, 5 μl of PE-labeled PD-L1-Ig (20 nM final), diluted in DiVEM supplemented with 10 fetal calf serum. After 1 hour incubation, cells were fixed with […] in dPBS containing 10 µg/mL Hoechst 33342 and then washed 3× in 100 μl dPB S. Data was collected and processed using a Cell Insight NXT High Content Imager and associated software.

| Compound | IC50 [µM] |
| --- | --- |
| Cc1cccc(C[C@@H]2NC(=O)[C@H](CC(=O)O)NC(=O)[C@H](Cc3ccc(OCc4cn(CCOCCOCCOCCOCCOCCOCCOCCOCCOCCOCCOCCNC(=O)CC[C@H](NC(=O)CCCCCCCCCCCCCCCCC(=O)O)C(=O)O)nn4)cc3)NC(=O)[C@H](Cc3c[nH]cn3)NC(=O)CSC[C@@H](C(=O)N[C@@H](CCN)C(N)=O)NC(=O)[C@H](CCC(=O)O)NC(=O)[C@H](C(C)C)NC(=O)[C@H](CC3CCCCC3)NC(=O)[C@H](CCN)NC(=O)[C@@H](CC(C)C)NC(=O)[C@H](CCCN)NC(=O)[C@H](Cc3ccc(OCC(=O)O)cc3)NC(=O)[C@H](Cc3ccc(-c4ccccc4)cc3)NC(=O)[C@H](Cc3ccc(OCC(=O)O)cc3)NC2=O)c1 [Compound 1010] ({CH2CO}-HY(X1)D[Phe(3-Me)]Y(Carboxymethyl)[Bip]Y(Carboxymethyl)[Orn][dL][Dab][Cha]VEC[Dab]-NH2; thioether N-14) | 0.63 |
| Cc1cccc(C[C@@H]2NC(=O)[C@H](CC(=O)O)NC(=O)[C@H](Cc3ccc(OCC(=O)O)cc3)NC(=O)[C@H](CCCNC(=N)N)NC(=O)CSC[C@@H](C(=O)N[C@@H](CCN)C(N)=O)NC(=O)[C@H](CCC(=O)O)NC(=O)[C@H](C(C)C)NC(=O)[C@H](CC3CCCCC3)NC(=O)[C@H](CCN)NC(=O)[C@@H](CC(C)C)NC(=O)[C@H](CCCN)NC(=O)[C@H](Cc3ccc(OCc4cn(CCOCCOCCOCCOCCOCCOCCOCCOCCOCCOCCOCCNC(=O)CC[C@H](NC(=O)CCCCCCCCCCCCCCCCC(=O)O)C(=O)O)nn4)cc3)NC(=O)[C@H](Cc3ccc(-c4ccccc4)cc3)NC(=O)[C@H](Cc3ccc(OCC(=O)O)cc3)NC2=O)c1 [Compound 1002] ({CH2CO}-RY(Carboxymethyl)D[Phe(3-Me)]Y(Carboxymethyl)[Bip]Y(X1)[Orn][dL][Dab][Cha]VEC[Dab]-NH2; thioether N-14) | 0.14 |
| Cc1cccc(C[C@@H]2NC(=O)[C@H](CC(=O)O)NC(=O)[C@H](Cc3ccc(OCC(=O)O)cc3)NC(=O)[C@H](CN)NC(=O)CSC[C@@H](C(=O)N[C@@H](CCN)C(N)=O)NC(=O)[C@H](Cc3ccc(OCc4cn(CCOCCOCCOCCOCCOCCOCCOCCOCCOCCOCCOCCNC(=O)CC[C@H](NC(=O)CCCCCCCCCCCCCCCCC(=O)O)C(=O)O)nn4)cc3)NC(=O)[C@H](C(C)C)NC(=O)[C@H](CC3CCCCC3)NC(=O)[C@H](CCN)NC(=O)[C@@H](CC(C)C)NC(=O)[C@H](CCCN)NC(=O)[C@H](Cc3ccc(OCC(=O)O)cc3)NC(=O)[C@H](Cc3ccc(-c4ccccc4)cc3)NC(=O)[C@H](Cc3ccc(OCC(=O)O)cc3)NC2=O)c1 [Compound 1013] ({CH2CO}-[Dap]Y(Carboxymethyl)D[Phe(3-Me)]Y(Carboxymethyl)[Bip]Y(Carboxymethyl)[Orn][dL][Dab][Cha]VY(X1)C[Dab]-NH2; thioether N-14) | 0.24 |
| Cc1cccc(C[C@@H]2NC(=O)[C@H](CC(=O)O)NC(=O)[C@H](Cc3ccc(OCc4cn(CCOCCOCCOCCOCCOCCOCCOCCOCCOCCOCCOCCNC(=O)CC[C@H](NC(=O)CCCCCCCCCCCCCCCCC(=O)O)C(=O)O)nn4)cc3)NC(=O)[C@H](CN)NC(=O)CSC[C@@H](C(=O)N[C@@H](CCN)C(N)=O)NC(=O)[C@H](CCC(=O)O)NC(=O)[C@H](C(C)C)NC(=O)[C@H](CC3CCCCC3)NC(=O)[C@H](CCN)NC(=O)[C@@H](CC(C)C)NC(=O)[C@H](CCCN)NC(=O)[C@H](Cc3ccc(OCC(=O)O)cc3)NC(=O)[C@H](Cc3ccc(-c4ccccc4)cc3)NC(=O)[C@H](Cc3ccc(OCC(=O)O)cc3)NC2=O)c1 [Compound 1008] ({CH2CO}-[Dap]Y(X1)D[Phe(3-Me)]Y(Carboxymethyl)[Bip]Y(Carboxymethyl)[Orn][dL][Dab][Cha]VEC[Dab]-NH2; thioether N-14) | 0.71 |
| Cc1cccc(C[C@@H]2NC(=O)[C@H](CC(=O)O)NC(=O)[C@H](Cc3ccc(OCC(=O)O)cc3)NC(=O)[C@H](CCCNC(=N)N)NC(=O)CSC[C@@H](C(N)=O)NC(=O)[C@H]([C@@H](C)O)NC(=O)[C@H](C(C)C)NC(=O)[C@H](CC3CCCCC3)NC(=O)[C@H](CCN)NC(=O)[C@@H](CC(C)C)NC(=O)[C@H](C)N(C)C(=O)[C@H](CCCNC(=O)CCCCCCCCCCC(=O)O)NC(=O)[C@H](Cc3ccc(-c4ccccc4)cc3)NC(=O)[C@H](Cc3ccc(O)cc3)NC2=O)c1 [Compound 1036] ({CH2CO}-RY(Carboxymethyl)D[Phe(3-Me)]Y[Bip][Orn](C12 diacid)[NMeA][dL][Dab][Cha]VTC-NH2; thioether N-14) | 0.13 |

Now those with a lower IC50, led by results:

| IC50 [µM] | Compound |
| --- | --- |
| 0.1 | CCCC[C@@H]1NC(=O)CSC[C@@H](C(=O)N[C@@H](CCN)C(N)=O)NC(=O)[C@H](CCC(=O)O)NC(=O)[C@H](C(C)C)NC(=O)[C@H](CC2CCCCC2)NC(=O)[C@H](CCN)NC(=O)[C@@H](CC(C)C)NC(=O)[C@H](CCCN)NC(=O)[C@H](Cc2ccc(OCC(=O)O)cc2)NC(=O)[C@H](Cc2ccc(-c3ccccc3)cc2)NC(=O)[C@H](Cc2ccc(OCc3cn(CCOCCOCCOCCOCCOCCOCCOCCOCCOCCOCCOCCNC(=O)CC[C@H](NC(=O)CCCCCCCCCCCCCCCCC(=O)O)C(=O)O)nn3)cc2)NC(=O)[C@H](Cc2cccc(C)c2)NC(=O)[C@H](CC(=O)O)NC(=O)[C@H](Cc2ccc(OCC(=O)O)cc2)NC1=O [Compound 1016] ({CH2CO}-[Nle]Y(Carboxymethyl)D[Phe(3-Me)]Y(X1)[Bip]Y(Carboxymethyl)[Orn][dL][Dab][Cha]VEC[Dab]-NH2; thioether N-14) |
| 0.12 | CC(C)C[C@H]1NC(=O)[C@H](C)N(C)C(=O)[C@H](C(C)C)NC(=O)[C@H](Cc2ccc(-c3ccccc3)cc2)NC(=O)[C@H](C(C)C)NC(=O)[C@H](Cc2c[nH]c3ccccc23)NC(=O)[C@H](CC(=O)O)NC(=O)[C@H](Cc2ccncc2)NC(=O)[C@H](Cc2ccc(CNC(=O)CCCCCCCCCCC(=O)O)cc2)NC(=O)CSC[C@@H](C(N)=O)NC(=O)[C@H](CO)NC(=O)[C@H](C(C)C)NC(=O)[C@H](CC2CCCCC2)NC(=O)[C@H](CC(N)=O)NC1=O [Compound 1037] ({CH2CO}-[Phe(4-CH2NH2)](C12 diacid)[4Pal]DWV[Bip]V[NMeA][dL]N[Cha]VSC-NH2; thioether N-14) |
| 0.09 | CC[C@@H]1NC(=O)CSC[C@@H](C(=O)N[C@@H](CCN)C(N)=O)NC(=O)[C@H](CCC(=O)O)NC(=O)[C@H](C(C)C)NC(=O)[C@H](CC2CCCCC2)NC(=O)[C@H](CCN)NC(=O)[C@@H](CC(C)C)NC(=O)[C@H](CCCN)NC(=O)[C@H](Cc2ccc(OCC(=O)O)cc2)NC(=O)[C@H](Cc2ccc(-c3ccccc3)cc2)NC(=O)[C@H](Cc2ccc(OCc3cn(CCOCCOCCOCCOCCOCCOCCOCCOCCOCCOCCOCCNC(=O)CC[C@H](NC(=O)CCCCCCCCCCCCCCCCC(=O)O)C(=O)O)nn3)cc2)NC(=O)[C@H](Cc2cccc(C)c2)NC(=O)[C@H](CC(=O)O)NC(=O)[C@H](Cc2ccc(OCC(=O)O)cc2)NC1=O [Compound 1017] ({CH2CO}-[Abu]Y(Carboxymethyl)D[Phe(3-Me)]Y(X1)[Bip]Y(Carboxymethyl)[Orn][dL][Dab][Cha]VEC[Dab]-NH2; thioether N-14) |
| 0.099 | Cc1cccc(C[C@@H]2NC(=O)[C@H](CC(=O)O)NC(=O)[C@H](Cc3ccc(C(=O)O)cc3)NC(=O)[C@H]([C@@H](C)O)NC(=O)CSC[C@@H](C(=O)N[C@@H](CCN)C(N)=O)NC(=O)[C@H](CCC(=O)O)NC(=O)[C@H](C(C)C)NC(=O)[C@H](CC3CCCCC3)NC(=O)[C@H](CCN)NC(=O)[C@@H](CC(C)C)NC(=O)[C@H](CCCN)NC(=O)[C@H](Cc3ccc(C(=O)O)cc3)NC(=O)[C@H](Cc3ccc(-c4ccccc4)cc3)NC(=O)[C@H](Cc3ccc(OCc4cn(CCOCCOCCOCCOCCOCCOCCOCCOCCOCCOCCOCCNC(=O)CC[C@H](NC(=O)CCCCCCCCCCCCCCCCC(=O)O)C(=O)O)nn4)cc3)NC2=O)c1 [Compound 1023] ({CH2CO}-T[Phe(4-COOH)]D[Phe(3-Me)]Y(X1)[Bip][Phe(4-COOH)][Orn][dL][Dab][Cha]VEC[Dab]-NH2; thioether N-14) |
| 0.054 | CCC[C@@H]1NC(=O)CSC[C@@H](C(=O)N[C@@H](CCN)C(N)=O)NC(=O)[C@H](CCC(=O)O)NC(=O)[C@H](C(C)C)NC(=O)[C@H](CC2CCCCC2)NC(=O)[C@H](CCN)NC(=O)[C@@H](CC(C)C)NC(=O)[C@H](CCCN)NC(=O)[C@H](Cc2ccc(C(=O)O)cc2)NC(=O)[C@H](Cc2ccc(-c3ccccc3)cc2)NC(=O)[C@H](Cc2ccc(OCc3cn(CCOCCOCCOCCOCCOCCOCCOCCOCCOCCOCCOCCNC(=O)CC[C@H](NC(=O)CCCCCCCCCCCCCCCCC(=O)O)C(=O)O)nn3)cc2)NC(=O)[C@H](Cc2cccc(C)c2)NC(=O)[C@H](CC(=O)O)NC(=O)[C@H](Cc2ccc(C(=O)O)cc2)NC1=O [Compound 1022] ({CH2CO}-[Nva][Phe(4-COOH)]D[Phe(3-Me)]Y(X1)[Bip][Phe(4-COOH)][Orn][dL][Dab][Cha]VEC[Dab]-NH2; thioether N-14) |
| 0.073 | Cc1cccc(C[C@@H]2NC(=O)[C@H](CC(=O)O)NC(=O)[C@H](Cc3ccc(OCC(=O)O)cc3)NC(=O)[C@H](CCCNC(=N)N)NC(=O)CSC[C@@H](C(=O)N[C@@H](CCN)C(N)=O)NC(=O)[C@H](Cc3ccc(OCc4cn(CCOCCOCCOCCOCCOCCOCCOCCOCCOCCOCCOCCNC(=O)CC[C@H](NC(=O)CCCCCCCCCCCCCCCCC(=O)O)C(=O)O)nn4)cc3)NC(=O)[C@H](C(C)C)NC(=O)[C@H](CC3CCCCC3)NC(=O)[C@H](CCN)NC(=O)[C@@H](CC(C)C)NC(=O)[C@H](CCCN)NC(=O)[C@H](Cc3ccc(OCC(=O)O)cc3)NC(=O)[C@H](Cc3ccc(-c4ccccc4)cc3)NC(=O)[C@H](Cc3ccc(OCC(=O)O)cc3)NC2=O)c1 [Compound 1014] ({CH2CO}-RY(Carboxymethyl)D[Phe(3-Me)]Y(Carboxymethyl)[Bip]Y(Carboxymethyl)[Orn][dL][Dab][Cha]VY(X1)C[Dab]-NH2; thioether N-14) |
